Where two headings read alike, the source gives them in different places.
What was measured:
[1] = Cytotoxicity evaluation in Zluc cells (CellTiter-Blue); assay type: cell-based, human; conditions: human, read-out: HCV Replicon CC50
Description: (§1) For cytotoxicity evaluation, Zluc cells were treated with compound as described herein, and cell viability was monitored using the CellTiter-Blue Cell Viability Assay (Promega) by adding 20 μL of the assay solution to each well. The plates were then incubated at 37° C./5% CO2 for at least 3 hours.

HCV genotype 1b replicon = assay: HCV replicon assay; assay type: cell-based; conditions: Hepatitis C virus
Description: Huh-7-derived cell line (Zluc) that harbors an HCV genotype 1b replicon and a luciferase reporter gene was grown in Dulbecco's Modified Eagle Medium (DMEM) supplemented with 10% fetal bovine serum, 2 mM GlutaMAX, 1% MEM nonessential amino acids, 100 IU/mL penicillin, 100 μg/mL streptomycin, and 0.5 mg/mL Geneticin® (G418). For dose response testing the cells were seeded in 96-well plates at 7.5×10^3 cells per well in a volume of 50 μL, and incubated at 37° C./5% CO2. Drug solutions were made up freshly in Huh-7 media as 2× stocks. Ten additional 5-fold dilutions were prepared from these stocks in DMEM without G418. At least three hours after Zluc cells were seeded, drug treatment was initiated by adding 50 μL of drug dilutions to the plates in duplicate. Final concentrations of drug ranged from 100 μM to […]. Cells were then incubated at 37° C./5% CO2. Alternatively, compounds were tested at two concentrations (1 μM and 10 μM). […] For this, media was removed from the plates via gentle tapping. Fifty microliters of ONE-glo luciferase assay reagent was added to each well. The plates were shaken gently for 3 min at room temperature and luminescence was measured on a Victor^3 V 1420 multilabel counter (Perkin Elmer) with a 1 second read time using a 700 nm cut-off filter. The EC50 values were calculated from dose response curves from the resulting best-fit equations determined by Microsoft Excel and XLfit 4.1 software. When screening at two fixed concentrations, the results were expressed as % inhibition at 1 μM and 10 μM.

[2] = Plasma and liver PK after single oral dose (Example 4C); assay type: in vivo, CD-1 mice; conditions: at 1 μmol/kg; single oral dose 10 mg/kg for 804a or 25 mg/kg for 804b
Description: Plasma samples were analyzed for 2′-methyl-2′-fluorouridine (2′-Me-2′-F-U) by LC-MS/MS. The internal standard (IS) was D3-2′-F-2′-Me-G. For protein precipitation and extraction, each plasma sample (50 μL) was treated with 500 μL of 0.2% formic acid in acetonitrile and 20 μL of the internal standard working solution. After vortexing and centrifugation, 500 μL of the sample extracts were transferred to a new plate, dried under N2 at ˜28° C. and reconstituted with 75 μL of 0.2% FA in water. The extracts were chromatographed on an Aquasil C18 column using a gradient system of 0.2% formic acid in water and acetonitrile. The analytes were detected and quantified by tandem mass spectrometry in positive ion mode on an MDS Sciex API5000 equipped with a Turbo Ionspray® interface. The calibration range was 0.500 (LLOQ) to 200 ng/mL in mouse plasma. The corresponding range for molar units is 1.92 to 769 pmol/mL.
Liver samples were analyzed for the active species 2′-methyl-2′-fluorouridine triphosphate (2′-Me-2′-F—U TP) by LC-MS/MS. […] Internal standard solution was added to the homogenate followed by neutralization with 20% ammonium hydroxide solution and addition of 500 μL 1% formic acid. The tissue samples were extracted by weak anion exchange solid phase extraction (SPE). […]

cathepsin A (CatA) = target: T1, cathepsin A (CatA) (Homo sapiens, UniProt P10619); assay: Hydrolysis of prodrugs by Cathepsin A; assay type: in vitro ADME; conditions: time not given; 100 μM compound, 37° C., pH 6.0
T1 sequence (P10619 29-326 limits assumed): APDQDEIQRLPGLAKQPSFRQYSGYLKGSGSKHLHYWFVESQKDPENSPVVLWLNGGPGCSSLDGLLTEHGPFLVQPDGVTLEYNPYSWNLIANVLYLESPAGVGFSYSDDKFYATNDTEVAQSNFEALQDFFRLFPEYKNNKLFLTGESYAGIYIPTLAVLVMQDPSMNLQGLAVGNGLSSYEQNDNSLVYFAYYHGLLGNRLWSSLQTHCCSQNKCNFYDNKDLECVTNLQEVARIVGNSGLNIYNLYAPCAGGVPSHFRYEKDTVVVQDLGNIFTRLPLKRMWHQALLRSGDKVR
T1 sequence (P10619 327-480 limits assumed): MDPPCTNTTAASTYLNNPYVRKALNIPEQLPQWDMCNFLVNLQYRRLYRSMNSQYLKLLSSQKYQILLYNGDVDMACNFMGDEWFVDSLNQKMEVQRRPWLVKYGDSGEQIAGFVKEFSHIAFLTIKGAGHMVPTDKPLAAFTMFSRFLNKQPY
Description: CatA, cathepsin L (CatL) and CES1 were purchased from R & D Systems (Minneapolis, Minn.). Prior to the enzymatic hydrolysis reactions, CatA was activated according to the manufacturer's instruction. Briefly, CatA (0.05 μg/μL) was incubated with CatL (0.005 μg/μL) for 30 min at 37° C. in 25 mM MES pH 6.0 containing 5 mM DTT. The reaction was stopped by addition of the CatL specific inhibitor E64 (10 μM).
The CatA assay was performed at 37° C. The reaction mixture contained 25 mM MES buffer pH 6.0, 100 mM NaCl, 4 mM DTT and 100 μM of the compound. The reaction was started by addition of the activated CatA enzyme to a final concentration of 0.005 μg/μL. […] Reactions were stopped by mixing the sample with an equal volume of ice-cold methanol, and were loaded on a HPLC for analysis.

[3] = target: T2, carboxylesterase 1 (CES1) (Homo sapiens, UniProt P23141); assay: Hydrolysis of prodrugs by Carboxylesterase 1; assay type: in vitro ADME; conditions: for CES1 hydrolysis: 100 μM compound, 37° C., pH 7.5
T2 construct: purchased R & D Systems (Minneapolis, Minn.)
T2 sequence (P23141 18-567): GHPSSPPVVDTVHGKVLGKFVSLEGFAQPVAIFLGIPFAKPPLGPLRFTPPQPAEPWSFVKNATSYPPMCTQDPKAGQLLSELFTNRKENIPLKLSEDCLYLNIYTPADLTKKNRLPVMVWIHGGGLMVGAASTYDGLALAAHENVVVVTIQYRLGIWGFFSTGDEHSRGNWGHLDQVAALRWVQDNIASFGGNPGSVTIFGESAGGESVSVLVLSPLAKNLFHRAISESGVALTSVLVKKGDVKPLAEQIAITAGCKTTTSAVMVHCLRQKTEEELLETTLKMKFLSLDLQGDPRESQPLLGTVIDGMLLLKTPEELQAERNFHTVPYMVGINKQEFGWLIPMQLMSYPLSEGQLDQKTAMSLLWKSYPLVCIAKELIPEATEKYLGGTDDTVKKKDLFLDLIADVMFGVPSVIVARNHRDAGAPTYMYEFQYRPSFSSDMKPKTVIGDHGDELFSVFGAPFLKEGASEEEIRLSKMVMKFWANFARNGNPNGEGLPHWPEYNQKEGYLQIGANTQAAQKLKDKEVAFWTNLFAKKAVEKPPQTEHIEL
Description: CES1 assay was performed at 37° C. in the reaction mixture containing 50 mM Tris/HCl buffer pH 7.5 and 100 μM of the compound. Reaction was started by addition of the CES1 to the final concentration 0.01 μg/mL. 100 μL aliquots were taken after 0.5 min, 3 hrs and 21 hrs of the incubation and the reaction was stopped by mixing with 100 μl of the ice-cold methanol prior to HPLC analysis.
Samples were analyzed by HPLC using 5 μC-18, 4.6×250 mm Phenomenex® Columbus column (Phenomenex USA, Calif.). The mobile phase consisted of buffer A (25 mM potassium phosphate with 5 mM tetrabutylammonium dihydrogen phosphate pH 6.3) and buffer B (100% methanol).

Huh-7 cells = assay: Release of active metabolite in Huh-7 cells; assay type: in vitro ADME, human
Description: Huh-7 cells were plated in 1 mL culture medium (DMEM, containing glucose, L-glutamine and sodium pyruvate, 10% FBS, 100 IU/mL penicillin, 100 μg/mL streptomycin, 2 mM GlutaMAX, 1% MEM non-essential amino acids) at the concentration 0.8, 0.4 and 0.2 million cells per well on 6 well plates for 24, 48 and 72 hr treatment, respectively. Plated cells were incubated overnight at 37° C. in an incubator.
The following morning test compound was diluted to 20 μM from a stock solution in DMSO in fresh culture medium pre-warmed to 37° C. and 1 mL of the solution/well was added to cells. A final medium volume per well was 2.0 mL, test compound concentration in well was 10 μM and final DMSO concentration was 0.1%.
After 24, 48 or 72 hr, the medium was carefully removed and cell monolayers were washed twice with 2 mL ice-cold PBS per well. Following the last wash, all PBS was carefully removed and 1.0 mL of extraction solution (ice-cold 70% methanol) added. The plate was tightly covered with Parafilm, plastic plate cover and Parafilm again and an intracellular content was extracted at −20° C. for 24 hr.
After 24 hr the extracts were transferred into polypropylene microfuge tubes and dry on a refrigerated centrivap concentrator. Dry residues were reconstituted in 250 μL of HPLC-grade water and centrifuged at 16,000×g for 10 min. Aliquots (100 μL each) of the supernatants were transferred into a 96 well plate and internal standard (4 ng/mL final concentration) was added as the internal standard (IS) for LC-MS/MS analysis.

[4] = Liver TP formation and liver targeting in vivo (Example 6, Table 7); design: species or system mice and monkey
Description: The in vitro antiviral inactivity of Z4 and Z2 is thought to reflect an inability of Huh-7 replicon cells to metabolize the prodrug moiety.

fresh mouse hepatocyte = assay: Release of active metabolite in primary hepatocytes (mouse); assay type: in vitro ADME; conditions: 10 μM
Description: (§2) Plates of fresh human and mouse hepatocytes were obtained on ice. The medium was removed and replaced with hepatocyte culture medium (William's E supplemented with penicillin-streptomycin, 1% L-glutamine, 1% insulin-transferrin-selenium and 0.1 μM Dexamethasone (Invitrogen) or with Invitro GRO HI medium complemented with Torpedo antibiotics (Celsis)). Cells were left overnight in an incubator at 37° C. to acclimatize to culture and the medium.
(§3) Hepatocyte incubations were conducted at a final volume of 0.5 mL hepatocyte culture medium/well (0.8 million cells/well for human and 0.5 million cells/well for mouse; 12 well plate no overlay, collagen coat). Culture medium from overnight incubation of cells was removed and replaced with fresh medium, pre-warmed to 37° C., containing 10 μM of test compound from a stock solution in DMSO (final DMSO concentration was 0.1%). At each specific time point, incubation medium was removed and cell monolayers were carefully washed two times with ice-cold PBS. Following the last wash, all PBS was carefully removed and 1.0 mL of extraction solution (ice-cold 70% methanol/30% water) added. Cells were scraped off and suspended in the extraction solution, transferred to 2 mL polypropylene microfuge tubes and intracellular contents extracted overnight at −20° C.
After the overnight treatment the cellular extracts were prepared by centrifugation at 16,000×g for 10 min to remove cellular debris. The remaining sample was then dried using a refrigerated centrivap concentrator. Dry extracts were reconstituted in 1000 μL of HPLC-grade water and centrifuged at 16,000×g for 10 min. Aliquots (100 μL each) of the supernatant were transferred into a 96 well plate and internal standard (4 ng/mL final concentration) was added as the internal standard (IS) for LC-MS/MS analysis.
The incubation time points were 6, 24 and 48 hours for human hepatocytes and 1, 4, 8, 12 and 24 hours for mouse hepatocytes.

Zluc cells = assay: Cytotoxicity evaluation in Zluc cells (CellTiter-Blue); assay type: cell-based, human; conditions: read-out: HCV Replicon CC50
Description: as §1

fresh human hepatocytes = assay: Release of active metabolite in primary hepatocytes (human); assay type: in vitro ADME; conditions: 10 μM
Description: as §2
as §3, with “−20° C. […]” for “−20° C.”

[5] = 72 h, Zluc (Huh-7-derived) cells, luciferase reporter, 72 hours, read-out: HCV Replicon EC50

Molecule `CCOc1nc(N)nc2c1ncn2[C@@H]1O[C@H](COP(=O)(N[C@H](C)C(=O)OC(C)C)Oc2ccccc2)C[C@@]1(C)F` (single isomer, unassigned) [502a Diastereomer 1] has a CC50 [1] of under 50 µM and an EC50 (HCV genotype 1b replicon; [5]) of 1 to 10 µM.
For `CC(C)OC(=O)[C@H](C)N[P@](=O)(OC[C@H]1O[C@@H](n2ccc(=O)[nH]c2=O)[C@](C)(F)[C@@H]1O)Oc1ccccc1` [GS-7977], the “Ms Plasma 2′-Me-2′-F-U AUC” value [2] was 0.00115 M·s.
In the case of `CC(C)OC(=O)[C@@H](C)NP(=O)(OC[C@H]1O[C@@H](n2ccc(=O)[nH]c2=O)[C@](C)(Cl)[C@@H]1O)Oc1ccccc1` (single isomer, unassigned) [Compound 40i Diastereomer 1], the CatA hydrolysis (cathepsin A (CatA)) is reported as 0%, the “Hydrolysis by CES1” value [3] is reported as “processed” and the CES1 hydrolysis ([3]; 3 h) is reported as 23% @. For the same molecule, the CES1 hydrolysis ([3]; 21 h) was 3 h; 49%, the “Huh-7 AUC0-72” value (Huh-7 cells; Table 7) was 436.9 pmol*hr/10^6cells and the EC50 (HCV genotype 1b replicon; Huh-7, read-out: EC50 (replicon reproduction), genotype 1b HCV replicon-bearing human hepatoma cell line (Huh-7)) was over 50 µM. The “Liver:plasma ratio of drug metabolites” value [4] was “high liver:plasma ratio of drug metabolites”.
With `CC(C)OC(=O)[C@H](C)NP(=O)(OC[C@H]1O[C@@H](n2ccc(=O)[nH]c2=O)[C@](C)(Cl)[C@@H]1O)Oc1ccccc1` (single isomer, unassigned) [40ii Diastereomer 2] the “Huh-7 TP AUC” value (Huh-7 cells; 10 μM test compound) was 14544 pmol.hr/mill cells, the “Huh-7 TP Cmax” value (Huh-7 cells; 10 μM test compound) was 294 pmol/mill cells and the “MsH AUC” value (fresh mouse hepatocyte) was 1794 pmol.hr/mill cells. The “MsH Cmax” value (fresh mouse hepatocyte) was 87 pmol/mill cells, the CC50 (Zluc cells) was over 50 µM and the “FHH TP AUC” value (fresh human hepatocytes) was 4934 pmol.hr/mill cells. The “FHH TP Cmax” value (fresh human hepatocytes) was 197 pmol/mill cells and the EC50 (HCV genotype 1b replicon; [5]) was 0.25 to 1 µM.
With `CC(C)OC(=O)[C@@H](C)NP(=O)(OC[C@H]1O[C@@H](n2ccc(=O)[nH]c2=O)[C@](C)(Cl)[C@@H]1O)Oc1ccccc1` (single isomer, unassigned) [40i Diastereomer 1] the “MsH AUC” value (fresh mouse hepatocyte) was 4052 pmol.hr/mill cells, the “MsH Cmax” value (fresh mouse hepatocyte) was 198 pmol/mill cells and the CC50 [1] was over 50 µM. For the same molecule, the EC50 (HCV genotype 1b replicon; [5]) was over 10 µM.

From patent publication US10717758B2, “D-amino acid compounds for liver disease” (priority 2012, dated 2020)
